Results reported in patent US7138493B1, “ATP-binding cassette protein responsible for cytotoxin resistance” (The United States of America as represented by the …, priority 1998, dated 2006).

How the values were obtained:
[1] = test system: cells that overexpress MXR1; assay: Drug resistance of cells that overexpress MXR1; assay type: cell-based
Text: These include mitoxantrone, several anthracyclines, rhodamine, daunomycin, SN-38 (the active metabolite of CPT-11), topotecan, and bisantrene. To identify compounds that can reverse the effect of ABCP overexpression, the concentration of drug that inhibits the proliferation of resistant cells by 50% (IC50) can be measured by an assay in the presence and absence of putative inhibitors. Compounds that cause a significant decrease in the IC50 will represent inhibitors and be characterized further.
These include mitoxantrone, several anthracyclines, rhodamine, daunomycin, SN-38 (the active metabolite of CPT-11), topotecan, and bisantrene. To identify compounds that can reverse the effect of MXR1 overexpression, the concentration of drug that inhibits the proliferation of resistant cells by 50% (IC50) will be measured in the presence and absence of putative inhibitors. Compounds that cause a significant decrease in the IC50 will represent inhibitors and be characterized further. For example, S1-M1-80 cells can be incubated in media containing 30 micromolar (IC10) of mitoxantrone and the proliferation of the cells measured by sulforhodamine staining after 96 hours with and without the addition of various potential inhibitors, as a screening assay. Next, for compounds that have potential activity, a formal calculation of the IC50 can be made by incubating the cells in a range of concentrations, diluting 3-fold from 3 mM, again, with and without the inhibitor in question. […] In the absence of a reversal agent, the IC50 is 100 micromolar for the S1M1-80 cells. Compounds that lower the IC50 for mitoxantrone can be tested for their ability to also lower the IC50 for other MXR1-transporting drugs such as adriamycin, topotecan, or bisantrene.

S1-M1-80 cells = assay: Proliferation of mitoxantrone resistant cells measured by sulforhodamine staining; assay type: cell-based, human
Procedure: The cells are then contacted with a toxic chemotherapy drug, such as mitoxantrone or daunomycin, in an amount that permits cell survival due to the resistance conferred by the ATP-binding cassette protein. The amount used is preferably from about 30 μM to about 3 mM. The cells are exposed to the drug for a time that is preferably from about 48 hours to about 96 hours. Cell growth is measured for these cells based on sulforhodamine staining measurement. Alternatively, cell growth can be monitored by vital stains, metabolite measurements or counting cell divisions.
One specific way to measure cell viability is by a calorimetric assay (Skehan et al., Natl. Cancer Inst. 82: 1117–1121 (1990)). […] The number of viable cells can then be determined by measuring the OD at 570 nm. Alternatively, viability of cells can be measured by counting cells with a cell counter or by incorporation of tritiated thymidine.
These include mitoxantrone, several anthracyclines, rhodamine, daunomycin, SN-38 (the active metabolite of CPT-11), topotecan, and bisantrene. […] For example, S1-M1-80 cells can be incubated in media containing 30 micromolar (IC10) of mitoxantrone and the proliferation of the cells measured by sulforhodamine staining after 96 hours with and without the addition of various potential inhibitors, as a screening assay. […]

Row | Compound | resistance of cells that overexpress MXR1 to the drug [1] | IC50 (S1-M1-80 cells; Homo sapiens, S1-M1-80, S1M1-80 cells, in the absence of a reversal agent, read-out: IC50 (concentration of drug that inhibits the proliferation of resistant cells by 50%)) | IC10 (S1-M1-80 cells; S1-M1-80 cells, concentration in media for the screening assay, 96 hours)
1 | CCc1c2c(nc3ccc(O)cc13)-c1cc3c(c(=O)n1C2)COC(=O)[C@]3(O)CC [SN-38] | resistant | – | –
2 | C(=N\NC1=NCCN1)/c1c2ccccc2c(/C=N/NC2=NCCN2)c2ccccc12 [bisantrene] | resistant | – | –
3 | COc1cccc2c1C(=O)c1c(O)c3c(c(O)c1C2=O)C[C@@](O)(C(C)=O)C[C@@H]3O[C@H]1C[C@H](N)[C@H](O)[C@H](C)O1 [daunomycin] | resistant | – | –
4 | O=C1c2c(O)ccc(O)c2C(=O)c2c(NCCNCCO)ccc(NCCNCCO)c21 [mitoxantrone] | resistant | 100 µM | 30 µM
5 | CC[C@@]1(O)C(=O)OCc2c1cc1n(c2=O)Cc2cc3c(CN(C)C)c(O)ccc3nc2-1 [topotecan] | resistant | – | –
6 | rhodamine | resistant | – | –
